Results from patent US7915268B2, “8-substituted 2-(benzimidazolyl)purine derivatives for immunosuppression” (Wyeth LLC, priority 2006, dated 2011).

Biological target: T1, Jak3 (Homo sapiens, UniProt P52333)
T1 construct: catalytic domain of Jak3 (508aa to 1124aa); made in house; host or cells: Sf9 insect cells (baculovirus, pFastBac 1)
T1 sequence (P52333 508-1124): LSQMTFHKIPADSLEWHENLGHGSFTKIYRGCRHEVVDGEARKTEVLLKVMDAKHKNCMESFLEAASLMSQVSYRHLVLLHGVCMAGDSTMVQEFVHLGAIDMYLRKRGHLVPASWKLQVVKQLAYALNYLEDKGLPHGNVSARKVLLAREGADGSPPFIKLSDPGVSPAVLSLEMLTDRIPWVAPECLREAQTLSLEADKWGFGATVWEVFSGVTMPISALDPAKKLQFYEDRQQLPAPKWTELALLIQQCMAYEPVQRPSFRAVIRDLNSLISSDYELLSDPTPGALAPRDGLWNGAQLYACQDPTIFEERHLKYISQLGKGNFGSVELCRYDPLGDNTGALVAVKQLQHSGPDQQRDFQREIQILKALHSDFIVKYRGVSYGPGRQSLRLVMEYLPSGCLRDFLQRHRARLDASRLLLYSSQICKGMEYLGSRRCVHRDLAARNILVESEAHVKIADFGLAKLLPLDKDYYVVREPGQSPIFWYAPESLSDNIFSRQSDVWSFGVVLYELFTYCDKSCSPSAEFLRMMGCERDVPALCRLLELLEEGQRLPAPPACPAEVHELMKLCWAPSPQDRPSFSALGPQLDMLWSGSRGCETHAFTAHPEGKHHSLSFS
Assay: Jak3 Kinase Assay (HTRF, GST-Jak3 catalytic domain)
Assay type: biochemical
Conditions: 1 μM ATP, 60-min incubation, read-out: Jak 3 (Converted)
Method: Human Jak3 cDNA was amplified by PCR. A fragment encoding the catalytic domain of Jak3 (508aa to 1124aa) was ligated with GST at 5′ end. This fused GST-Jak3 DNA fragment was cloned into the EcoRI site of the donor plasmid pFastBac 1 (Life Technologies #10359-016). The transformation, transposition, and transfection of insect cells (Sf9) were performed according to the manufacture's instructions. The cell lysate containing recombinant GST-Jak3 was used in the kinase assay. Anti-GST antibody (10 μg/ml, Sigma #G1417) was coated onto a 384-well plate at 4° C. overnight. Cell lysate containing GST-Jak3 (1:100 dilution) was added to the anti-GST coated plates, and GST-Jak3 was captured by immobilized anti-GST antibody. Testing compounds and substrate mix (50 mM HEPES, pH 7, 0.5 mM Na3VO4, 25 mM MgCl2, 1 mM DTT, 0.005% BSA, 1 μM ATP, and 4.5 μg/ml biotinyl poly-Glu, Ala, Tyr) were added to the plate to initiate the reaction. After a 60-min incubation, the reaction was stopped by 4 mM EDTA, and phosphorylation of biotinyl poly-Glu, Ala, Tyr was detected using 17 μg/ml Cy5-streptavidin (Amersham, #PA92005) and 2.7 μg/ml Europium-conjugated anti-phosphotyrosine antibody (PerkinElmer #AD0069) using homogeneous time-resolved fluorescence (HTRF) technology.

| IC50 | Structure (SMILES) |
| --- | --- |
| < 100 nM | Nc1ncc(-c2nc3cnc(-n4cnc5ccc(F)cc54)nc3n2C2CCOCC2)cn1 [Example 59] |
| < 100 nM | N#Cc1ccc2ncn(-c3ncc4nc(Nc5ccccc5F)n(C5CCOCC5)c4n3)c2c1 [Example 109] |
| 100 to 1000 nM | COC1CCN([C@H]2C(C)=Nc3cnc(-n4cnc5ccc(F)cc54)nc32)CC1 [Example 21] |
| < 100 nM | Cc1nc2cnc(-n3cnc4ccc(F)cc43)nc2n1[C@@H]1CCOc2ccccc21 [Example 78] |
| < 100 nM | Clc1ccc2ncn(-c3ncc4nc(-c5cncnc5)n(C5CCOCC5)c4n3)c2c1 [Example 65] |
| < 100 nM | N#Cc1ccc2ncn(-c3ncc4nc(NCC5CCCO5)n(C5CCOCC5)c4n3)c2c1 (centres unmarked) [Example 93] |
| > 1000 nM | Fc1ccc2ncn(-c3ncc4nc(-c5cccc(Br)c5)n(C5CCOCC5)c4n3)c2c1 [Example 57] |
| < 100 nM | Fc1ccc2ncn(-c3ncc4nc(-c5cncnc5)n([C@@H]5CCOc6c(F)cccc65)c4n3)c2c1 [Example 55] |
| < 100 nM | CCNc1nc2cnc(-n3cnc4ccc(C#N)cc43)nc2n1[C@@H]1CCOc2ccccc21 [Example 97] |
| < 100 nM | N#Cc1ccc2ncn(-c3ncc4nc(-c5cncnc5)n([C@@H]5CCOc6ccc(F)cc65)c4n3)c2c1 [Example 2] |
| > 1000 nM | Cc1cccc(-c2nc3cnc(-n4cnc5ccc(F)cc54)nc3n2C2CCOCC2)n1 [Example 41] |
| < 100 nM | COc1ccc(-c2nc3cnc(-n4cnc5ccc(F)cc54)nc3n2C2CCOCC2)cn1 [Example 63] |
| < 100 nM | N#Cc1ccc2ncn(-c3ncc4nc(-c5cncnc5)n([C@@H]5CCOc6ccccc65)c4n3)c2c1 [Example 11] |
| > 1000 nM | c1ccc(Cn2c(-c3ccccc3)nc3cnc(-n4cnc5ccccc54)nc32)cc1 [Example 89] |
| < 100 nM | Cc1nc2cnc(-n3cnc4ccc(OC(F)(F)F)cc43)nc2n1C1CCOCC1 [Example 76, 8-Methyl-9-(tetrahydro-2H-pyran-4-yl)-2-(6-(trifluoromethoxy)-1H-benzo[d]imidazol-1-yl)-9H-purine] |
| 100 to 1000 nM | Oc1cccc(-c2nc3cnc(-n4cnc5ccc(F)cc54)nc3n2[C@@H]2CCOc3c(F)cccc32)c1 [Example 28] |
| > 1000 nM | COCCCn1c(C)nc2cnc(-n3cnc4ccccc43)nc21 [Example 84] |
| 100 to 1000 nM | Cc1ccc(-c2nc3cnc(-n4cnc5ccc(F)cc54)nc3n2C2CCOCC2)o1 [Example 52] |
| > 1000 nM | Fc1ccc2ncn(C3N=c4c(nc(-c5ccnc6ccccc56)n4C4CCOCC4)=CN3)c2c1 (centres unmarked) [Example 56] |

| IC50 | Structure (SMILES) |
| --- | --- |
| < 100 nM | Fc1ccc2ncn(-c3ncc4nc(-c5ccc(Br)nc5)n(C5CCOCC5)c4n3)c2c1 [Example 36] |
| 100 to 1000 nM | CO[C@H]1CC[C@H](n2c(-c3cncnc3)nc3cnc(-n4cnc5ccc(Cl)cc54)nc32)CC1 [Example 29] |
| 100 to 1000 nM | [O-][n+]1ccc(-c2nc3cnc(-n4cnc5ccc(F)cc54)nc3n2C2CCOCC2)cc1 [Example 88] |
| 100 to 1000 nM | COc1ccc(-c2nc3cnc(-n4cnc5ccc(C#N)cc54)nc3n2C2CCOCC2)cc1 [Example 19] |
| < 100 nM | Cc1nc2cnc(-n3cnc4ccc(C#N)cc43)nc2n1C1CCOCC1 [Example 25, 3-(8-Methyl-9-(tetrahydro-2H-pyran-4-yl)-9H-purin-2-yl)-3H-benzo[d]imidazole-5-carbonitrile] |
| < 100 nM | Cc1nc2cnc(-n3cnc4ccccc43)nc2n1C1CCOCC1 [Example 83] |
| 100 to 1000 nM | COC(=O)c1cccc(-c2nc3cnc(-n4cnc5ccc(F)cc54)nc3n2C2CCOCC2)c1 [Example 31] |
| > 1000 nM | COCCCn1c(-c2ccccc2)nc2cnc(-n3cnc4ccccc43)nc21 [Example 85] |
| < 100 nM | Nc1nccc(-c2nc3cnc(-n4cnc5ccc(F)cc54)nc3n2C2CCOCC2)n1 [Example 53] |
| < 100 nM | Cc1nc2cnc(-n3cnc4ccc(C#N)cc43)nc2n1C1CCOc2ccc(F)cc21 (centres unmarked) [Example 24] |
| 100 to 1000 nM | CO[C@H]1CC[C@H](n2c(C)nc3cnc(-n4cnc5ccc(Cl)cc54)nc32)CC1 [Example 73] |
| < 100 nM | Fc1ccc2ncn(-c3ncc4nc(-c5ccoc5)n(C5CCOCC5)c4n3)c2c1 [Example 70] |
| < 100 nM | CS(=O)(=O)Nc1cccc(-c2nc3cnc(-n4cnc5ccc(C#N)cc54)nc3n2C2CCOCC2)c1 [Example 14] |
| < 100 nM | Oc1cccc(-c2nc3cnc(-n4cnc5ccc(Cl)cc54)nc3n2C2CCOCC2)c1 [Example 40] |
| < 100 nM | Fc1ccc2ncn(-c3ncc4nc(-c5ccc(F)nc5)n([C@@H]5CCOc6c(F)cccc65)c4n3)c2c1 [Example 103, 2-(6-fluoro-1H-benzo[d]imidazol-1-yl)-9-((R)-8-fluorochroman-4-yl)-8-(6-fluoropyridin-3-yl)-9H-purine] |
| < 100 nM | Fc1ccc2ncn(-c3ncc4nc(-c5ccncc5)n([C@@H]5CCOc6c(F)cccc65)c4n3)c2c1 [Example 49] |
| < 100 nM | O[C@@H]1CC[C@@H](n2c(-c3cncnc3)nc3cnc(-n4cnc5ccc(F)cc54)nc32)c2ccccc21 [Example 112, (1R,4R)-4-(2-(6-Fluoro-1H-benzo[d]imidazol-1-yl)-8-(pyrimidin-5-yl)-9H-purin-9-yl)-1,2,3,4-tetrahydronaphthalen-1-ol] |
| > 1000 nM | Fc1cccc2c1COCC2n1c(-c2ccccc2)nc2cnc(-n3cnc4ccccc43)nc21 (centres unmarked) [Example 86, 2-(1H-benzo[d]imidazol-1-yl)-9-(8-fluoroisochroman-4-yl)-8-phenyl-9H-purine] |
| < 100 nM | N#Cc1ccc2ncn(-c3ncc4nc(-c5cccc(O)c5)n(C5CCOCC5)c4n3)c2c1 [Example 8] |

| IC50 | Structure (SMILES) |
| --- | --- |
| < 100 nM | Fc1ccc2ncn(-c3ncc4nc(-c5ccncc5)n(C5CCOCC5)c4n3)c2c1 [Example 32] |
| 100 to 1000 nM | O=c1ccc(-c2nc3cnc(-n4cnc5ccc(F)cc54)nc3n2C2CCOCC2)c[nH]1 [Example 61] |
| 100 to 1000 nM | Fc1ccc2ncn(-c3ncc4nc(-c5ncc[nH]5)n(C5CCOCC5)c4n3)c2c1 [Example 33, 2-(6-Fluoro-1H-benzo[d]imidazol-1-yl)-8-(1H-imidazol-2-yl)-9-(tetrahydro-2H-pyran-4-yl)-9H-purine] |
| < 100 nM | Fc1ccc2ncn(-c3ncc4nc(-c5ccncn5)n(C5CCOCC5)c4n3)c2c1 [Example 69] |
| < 100 nM | CC(C)(C)c1nc2cnc(-n3cnc4ccc(F)cc43)nc2n1C1CCOCC1 [Example 34] |
| 100 to 1000 nM | Cc1nc2cnc(-n3cnc4ccccc43)nc2n1C1COCc2c(F)cccc21 (centres unmarked) [Example 80] |
| < 100 nM | Cc1nc2cnc(-n3cnc4ccccc43)nc2n1[C@@H]1CCOc2c(F)cccc21 [Example 81, 2-(1H-benzo[d]imidazol-1-yl)-9-((R)-8-fluorochroman-4-yl)-8-methyl-9H-purine] |
| 100 to 1000 nM | COCCC(C)n1c(-c2c[nH]c3ccccc23)nc2cnc(-n3cnc4ccc(F)cc43)nc21 (centres unmarked) [Example 27] |
| 100 to 1000 nM | CO[C@H]1CC[C@H](n2c(C)nc3cnc(-n4cnc5ccc(OC(F)(F)F)cc54)nc32)CC1 [Example 26] |
| < 100 nM | CCNc1nc2cnc(-n3cnc4ccc(C#N)cc43)nc2n1C1CCOCC1 [Example 96, 3-(8-(ethylamino)-9-(tetrahydro-2H-pyran-4-yl)-9H-purin-2-yl)-3H-benzo[d]imidazole-5-carbonitrile] |
| < 100 nM | CSc1nc2cnc(-n3cnc4ccc(F)cc43)nc2n1[C@@H]1CCOc2c(F)cccc21 [Example 111] |
| 100 to 1000 nM | Fc1ccc2ncn(-c3ncc4nc(-c5ccccn5)n(C5CCOCC5)c4n3)c2c1 [Example 66] |
| < 100 nM | N#Cc1ccc2ncn(-c3ncc4nc(-c5ccccc5)n(C5CCOCC5)c4n3)c2c1 [Example 16] |
| < 100 nM | CCc1nc2cnc(-n3cnc4ccc(F)cc43)nc2n1[C@@H]1CCOc2ccccc21 [Example 79] |
| 100 to 1000 nM | Cn1cccc1-c1nc2cnc(-n3cnc4ccc(F)cc43)nc2n1C1CCOCC1 [Example 50] |
| 100 to 1000 nM | Fc1cccc(-c2nc3cnc(-n4cnc5ccc(F)cc54)nc3n2C2CCOCC2)c1 [Example 67] |
| < 100 nM | Fc1ccc2ncn(-c3ncc4c(n3)C([C@@H]3CCOc5ccccc53)C(CCl)=N4)c2c1 (some centres unmarked) [Example 77] |
| 100 to 1000 nM | COc1cccc(-c2nc3cnc(-n4cnc5ccc(C#N)cc54)nc3n2C2CCOCC2)c1 [Example 4] |
